# Measured values reported in US10344065B2, “Method for treating Alzheimer's disease and method for downregulating protein aggregation in brain” (National Cheng Kung University, priority 2017, dated 2019).
# Key:
# WWOX = WWOX phosphorylation in melanoma-bearing nude mice; assay type: in vivo, mouse; conditions: B16F10-bearing nude mice, n=3
# Description: FIG. 4 includes photos showing that Zfra suppresses melanoma B16F10-mediated neurodegeneration in the hippocampus. Nude mice were preinjected with 100 μL, of sterile Milli-Q water or Zfra4-10 (1 mM in sterile water) in 3 consecutive weeks. After treatment for a week, these mice were inoculated with melanoma B16F10 cells on both flanks (2×10^5 cells in 100-μL, PBS). Mice were sacrificed when the tumor sizes grew up to 2000-3000 mm^3 in about a month. (A) Zfra blocked neurodegeneration in the hippocampus (top panel) and prevented the formation of TPC6AΔ plaques in the cortex (bottom panel), which negatively correlates with pS14-WWOX expression. Note the presence of condensed apoptotic nuclei in the hippocampal neurons in the control mice, (B) Metastasis of B16F10 cells to the lung was blocked in Zfra-treated mice. Compared to controls, Zfra suppressed p-S14WWOX expression in the lung by ˜72% suppression (three sections). […] (C and D) The non-spatial learning and memory were determined by novel object recognition task for both 3×Tg and Wwox+/− mice. […] Also, see data in FIG. 1.
# Six- to eight-week-old male nude (BALB/cAnN.Cg-Foxn1^nu/CrlNarl) mice (National Laboratory Animal Center, Taiwan) were used. Mice were intravenously injected into tail veins with 100 μL of Zfra1-31 or Zfra4-10 (2 mM), or sterile water. After injection for 1-8 weeks, mouse melanoma B16F10 or human glioma 13-06-MG cells (2-2.5×10^6 cells/100-μL saline) were then inoculated in subcutaneous sites at both flanks. Tumor volumes were measured daily and calculated using the equation, D×(d)^2/2, where D and d are the major and minor diameters, respectively. At indicated time point, mouse organs, including brain, lung, spleen, and liver, were harvested and fixed with 4% paraformaldehyde. IHC was carried out using indicated specific antibodies to determine protein expression in tissues and organs. Where indicated, TMR-Zfra was used to stain spleen, brain, and lung tissues. Z-cell distribution in organs was determined under fluorescence microscopy.
# melanoma B16F10 cells = experiment: B16F10 metastasis to the lung in nude mice; assay type: in vivo, mouse
# Description: FIG. 4 includes photos showing that Zfra suppresses melanoma B16F10-mediated neurodegeneration in the hippocampus. Nude mice were preinjected with 100 μL, of sterile Milli-Q water or Zfra4-10 (1 mM in sterile water) in 3 consecutive weeks. After treatment for a week, these mice were inoculated with melanoma B16F10 cells on both flanks (2×10^5 cells in 100-μL, PBS). Mice were sacrificed when the tumor sizes grew up to 2000-3000 mm^3 in about a month. (A) Zfra blocked neurodegeneration in the hippocampus (top panel) and prevented the formation of TPC6AΔ plaques in the cortex (bottom panel), which negatively correlates with pS14-WWOX expression. Note the presence of condensed apoptotic nuclei in the hippocampal neurons in the control mice, (B) Metastasis of B16F10 cells to the lung was blocked in Zfra-treated mice. Compared to controls, Zfra suppressed p-S14WWOX expression in the lung by ˜72% suppression (three sections). […] (C and D) The non-spatial learning and memory were determined by novel object recognition task for both 3×Tg and Wwox+/− mice. […]
# Six- to eight-week-old male nude (BALB/cAnN.Cg-Foxn1^nu/CrlNarl) mice (National Laboratory Animal Center, Taiwan) were used. […] Tumor volumes were measured daily and calculated using the equation, D×(d)^2/2, where D and d are the major and minor diameters, respectively. […] Z-cell distribution in organs was determined under fluorescence microscopy.
# [1] = target: T1, WWOX7-21, WWOX286-299, and ANKRD40266-281 peptides (Homo sapiens, UniProt Q9NZC7); experiment: Polymerization of serine-containing WWOX and ANKRD40 peptides in PBS; assay type: biochemical
# T1 construct: purchased Genemed Synthesis
# Description: (§1) FIG. 5 includes photos and diagrams showing that Zfra suppresses polymerization or aggregation of serine-containing TPC6AΔ and other peptides in PBS. Zfra4-10 was incubated with an indicated serine-containing peptide in PBS at room temperature for 24 hours (final 200 μM each peptide). The mixtures were subjected to nonreducing sodium dodecyl sulfate polyacrylamide gel electrophoresis (SDS-PAGE). (A) Full-length Zfra or red-fluorescent TMR-Zfra blocked aggregation of Aβ42 (lanes 3, 5, and 7). […] The membrane was stained with antibody against Aβ. (B) Zfra4-10 and one of the TPC6AΔ peptides were resuspended in Milli-Q water or PBS and incubated for 24 hours at room temperature. Zfra4-10 suppressed the polymerization of serine-containing peptides. Reduction in intensity=[1−(Z.P)/(Z+P)]×100%, where Z=Zfra4-10, P=an indicated peptide, and Z.P=peptide mixture. […] Zfra4-10 suppressed polymerization of these peptides in PBS.
# (§2) Zfra and serine-containing peptides were synthesized by Genemed Synthesis (San Antonio, Tex., USA), (1) Zfra1-31, […] (SEQ ID NO: 2); (2) Zfra4-10, RRSSSCK (SEQ ID NO: 1); (3) WWOX7-21, AGLDDTDSEDELPPG (SEQ ID NO: 3); (4) pS14-WWOX7-21, AGLDDTDpSEDELPPG (SEQ ID NO: 4); (5). WWOX286-299, DYWAMLAYNRSKLC (SEQ ID NO: 5); (6) pY287-WWOX286-299, DpYWAMLAYNRSKLC (SEQ ID NO: 6); (7) TPC6A24-38, DPGPGGQKMSLSVLE (SEQ ID NO: 7); (8) pS35-TPC6A24-38, DPGPGGQKMSLpSVLE (SEQ ID NO: 8); (9) TPC6A84-100, KDLWVAVFQKQMDSLR (SEQ ID NO: 9); (10) ANKRD40266-281, RIQNPSLRENDFIEIE (SEQ ID NO: 10); (11) pS271-ANKRD40266-281, RIQNPpSLRENDFIEIE (SEQ ID NO: 11); (12) tetramethylrhodamine-labeled Zfra (TMR-Zfra), the full-length Zfra1-31 was labeled with a red-fluorescent […] fluorescent probe tetramethylrhodamine. The peptide stocks were made as 10 mM in degassed sterile Milli-Q water. Each tube was flushed with nitrogen and stored in −80° C. freezer. For tail vein injections, peptides were freshly prepared in degassed Milli-Q water at 1-4 mM in 100-μL Milli-Q. GenBank accession for ANKRD40 is EU164539. Aβ peptides were from AnaSpec, (1) Aβ42: […] (SEQ ID NO: 12); (2) Aβ40: […] […]
# [2] = test system: WWOX7-21, WWOX286-299, and ANKRD40266-281 peptides; experiment: as above; assay type: biochemical
# Description: as §1, §2
# TPC6AΔ peptides = experiment: Aggregation of serine-containing TPC6AΔ peptides in PBS; assay type: biochemical; conditions: 24 hours, room temperature
# Description: as §1
# Zfra and serine-containing peptides were synthesized by Genemed Synthesis (San Antonio, Tex., USA), (1) Zfra1-31, […] (SEQ ID NO: 2); (2) Zfra4-10, RRSSSCK (SEQ ID NO: 1); (3) WWOX7-21, AGLDDTDSEDELPPG (SEQ ID NO: 3); (4) pS14-WWOX7-21, AGLDDTDpSEDELPPG (SEQ ID NO: 4); (5). […]
substance,measurement,setting,value
"RRSSSCK [Zfra4-10, truncated zinc finger-like peptide, amino acids 4-10 of Zfra]",suppression of Ser14 phosphorylation of WWOX (pS14-WWOX),WWOX; brain (hippocampus),87±5%
same,suppression of Tyr33 phosphorylation in WWOX,WWOX; brain,2±6%
same,suppression of phosphorylation in Tyr33 in WWOX in the lung,WWOX; lung,5±3%
same,B16F10 metastasis to the lung,melanoma B16F10 cells,blocked
same,aggregation of pY287-WWOX286-299,[1],did not effectively block
same,polymerization of phosphorylated WWOX7-21 and ANKRD40266-281,[2],had apparent effects
same,"polymerization or aggregation of non-phosphorylated WWOX7-21, WWOX286-299, ANKRD40266-281",[2],effectively blocked
same,"aggregation of TPC6AΔ peptides (TPC6AΔ24-38, pS35-TPC6AΔ24-38, TPC6AΔ84-100)",TPC6AΔ peptides,effectively blocked
